According to US7276519B2, “Thieno[3,2-b]pyridine-6-carbonitriles and thieno[2,3-b]pyridine-5-carbonitriles as protein kinase inhibitors” (Wyeth, priority 2002, dated 2007):
Several values for one entry are separate records, joined by “and”; a condition that tells them apart may be missing. Equal entries are not always repeated. Where two headings read alike, the source gives them in different places.

Tests used:
[1] = test system: Rat2 fibroblasts stably transformed with v-Src/Hu c-Src fusion gene; assay: Anchorage independent Src-transformed fibroblast proliferation assay; assay type: cell-based, rat
Protocol: Anchorage Independent Src-Transformed Fibroblast Proliferation Assay Rat2 fibroblasts stably transformed with a plasmid containing a CMV promotor controlled v-Src/Hu c-Src fusion gene in which the catalytic domain of human c-Src was inserted in place of the v-Src catalytic domain in the v-Src gene are used for the measurement of src dependent suspension growth. […] Multiple entries for a given compound indicate that it was tested multiple times.

[2] = biological target: T1, Rat2 fibroblasts stably transformed with v-Src/Hu Lck fusion gene (Homo sapiens, UniProt P06239, cells depend on it, form not given); assay: Anchorage independent Lck-transformed fibroblast proliferation assay; assay type: cell-based, rat
T1 construct: Candidates are e.g. Schmidt-Ruppin A (P00524) or Prague C (P00526); The human Lck catalytic domain stands in place of the v-Src catalytic domain
Protocol: Anchorage Independent Lck-Transformed Fibroblast Proliferation Assay
Rat2 fibroblasts stably transformed with a plasmid containing a CMV promotor controlled v-Src/Hu Lck fusion gene in which the catalytic domain of human Lck was inserted in place of the v-Src catalytic domain in the v-Src gene are used for the measurement of src dependent suspension growth. Ultra-low cluster plates (Costar # 3474) are seeded with 10,000 cells per well on Day 1. Compound is added in serial two-fold dilutions from 10 micromolar to 0.009 micromolar on Day 2 and MTS reagent (Promega) is added on Day 5 (100 microliters of MTS/medium mix+100 microliters of medium already on the cells and the absorbance is measured at 490 nm. The results are analyzed as follows to yield an IC50 for proliferation (micromolar units) as follow: % inhibition=(Abs490 nm sample−blank)/(Abs490 nm no cmpd control−blank)×100%. The results obtained for representative compounds of this invention are listed in Table 2. Multiple entries for a given compound indicate that it was tested multiple times.

[3] = Rattus norvegicus, Rat2, 120 h, Table 1, suspension growth, MTS readout Day 5, read-out: Src cells IC50
[4] = Table 2, suspension growth, MTS readout Day 5, read-out: Lck cells IC50
[5] = Table 1, suspension growth, MTS readout Day 5, read-out: Src cells IC50
[6] = Rattus norvegicus, Rat2, Table 3, read-out: Src Cells IC50 μM or % inhib at 10 μM (IC50 values)
[7] = Table 3, read-out: Src Cells IC50 μM or % inhib at 10 μM (IC50 values)
[8] = Table 3, read-out: Lck Cells IC50

T1 sequence (P06239 whole entry, change not shown, the tested form may be a part): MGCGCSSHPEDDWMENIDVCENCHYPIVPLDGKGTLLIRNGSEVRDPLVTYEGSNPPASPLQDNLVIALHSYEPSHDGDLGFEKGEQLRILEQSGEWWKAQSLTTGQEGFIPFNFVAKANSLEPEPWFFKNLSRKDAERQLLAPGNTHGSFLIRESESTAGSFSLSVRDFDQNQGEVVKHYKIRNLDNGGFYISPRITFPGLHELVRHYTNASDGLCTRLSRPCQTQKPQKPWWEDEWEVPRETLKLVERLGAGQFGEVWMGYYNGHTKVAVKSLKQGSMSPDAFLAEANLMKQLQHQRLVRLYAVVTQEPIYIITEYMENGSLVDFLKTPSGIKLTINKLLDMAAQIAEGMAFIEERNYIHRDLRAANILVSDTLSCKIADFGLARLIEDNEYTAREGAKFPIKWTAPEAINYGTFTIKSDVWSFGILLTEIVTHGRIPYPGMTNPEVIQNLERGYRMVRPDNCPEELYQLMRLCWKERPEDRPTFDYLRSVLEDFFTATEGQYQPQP

Row | SMILES | melting point | IC50 [1, 6] | IC50 [1, 7] | GI50 [2, 8] | other results
1 | COc1cc(Nc2c(C#N)cnc3cc(Br)sc23)c(Cl)cc1Cl [Example 3, 2-Bromo-7-[(2,4-dichloro-5-methoxyphenyl)amino]-thieno[3,2-b]pyridine-6-carbonitrile] | 228 to 229 °C | – | – | – | IC50 [1, 3]: 37 µM; GI50 [2, 4]: 32000 nM
2 | COc1cc(Nc2c(C#N)cnc3cc(-c4ccc(CN5CCN(CCO)CC5)cc4)sc23)c(Cl)cc1Cl [Example 17, 7-[(2,4-Dichloro-5-methoxyphenyl)amino]-2-(4-{[4-(2-hydroxyethyl)piperazin-1-yl]methyl}phenyl)thieno[3,2-b]pyridine-6-carbonitrile] | 189 to 190 °C | – | – | – | IC50 [1, 3]: 0.37 µM; GI50 [2, 4]: 140 nM
3 | COc1cc(Nc2c(C#N)cnc3cc(-c4csc(CN5CCOCC5)c4)sc23)c(Cl)cc1Cl [Example 39, 7-[(2,4-Dichloro-5-methoxyphenyl)amino]-2-[5-(morpholin-4-ylmethyl)thien-3-yl]thieno[3,2-b]pyridine-6-carbonitrile] | 209 to 212 °C | – | – | – | IC50 [1, 3]: 0.85 µM; GI50 [2, 4]: 680 nM
4 | COc1cc(Nc2c(C#N)cnc3cc(-c4ccc(CN5CCN(C)CC5)cc4)sc23)cc(OC)c1OC [Example 58, 2-{4-[(4-Methylpiperazin-1-yl)methyl]phenyl}-7-[(3,4,5-trimethoxyphenyl)amino]thieno[3,2-b]pyridine-6-carbonitrile] | 189 to 191 °C | – | – | – | IC50 [1, 3]: 0.165 µM; IC50 [1, 5]: 0.245 µM; GI50 [2, 4]: 48 nM
5 | COc1cc(Nc2c(C#N)cnc3cc(-c4cnc(CN5CCN(C)CC5)n4C)sc23)c(Cl)cc1Cl [Example 59, 7-[(2,4-Dichloro-5-methoxyphenyl)amino]-2-{1-methyl-2-[(4-methylpiperazin-1-yl)methyl]-1H-imidazol-5-yl}thieno[3,2-b]pyridine-6-carbonitrile] | 234 to 235 °C | – | – | – | IC50 [1, 3]: 1.21 µM; IC50 [1, 5]: 2.29 µM; GI50 [2, 4]: 270 nM and 320 nM
6 | COc1cc(Nc2c(C#N)cnc3cc(-c4ccc(CN(C)C)cc4)sc23)cc(OC)c1OC [Example 61, 2-{4-[(Dimethylamino)methyl]phenyl}-7-[(3,4,5-trimethoxyphenyl)amino]thieno[3,2-b]pyridine-6-carbonitrile] | 199 to 201 °C | – | – | – | IC50 [1, 3]: 0.217 µM; IC50 [1, 5]: 0.279 µM; GI50 [2, 4]: 17 nM and 15 nM and 14 nM
7 | COc1cc(Nc2c(C#N)cnc3cc(/C=C/c4ccccc4)sc23)c(Cl)cc1Cl [Example 64, 7-[(2,4-Dichloro-5-methoxyphenyl)amino]-2-[(E)-2-phenylvinyl]thieno[3,2-b]pyridine-6-carbonitrile] | 236 to 238 °C | 6.4 µM | 5.6 µM | 7400 nM and 7900 nM | –
8 | COc1cc(Nc2c(C#N)cnc3cc(/C=C/n4nccn4)sc23)c(Cl)cc1Cl [Example 66, 7-[(2,4-Dichloro-5-methoxyphenyl)amino]-2-[(E)-2-(2H-1,2,3-triazol-2-yl)vinyl]thieno[3,2-b]pyridine-6-carbonitrile] | 315 to 316 °C | – | – | > 10000 nM | inhibition at 10 µM ([1]; Rattus norvegicus, Rat2, Table 3, at 10 μM, read-out: Src Cells IC50 μM or % inhib at 10 μM (% values)): 26%; Src Cells IC50 μM or % inhib at 10 μM (% values) ([1]; Table 3, at 10 μM): 26%, 26%
9 | COc1cc(Nc2c(C#N)cnc3cc(-c4ccc(C5OCCO5)o4)sc23)c(Cl)cc1Cl [Example 68, 7-[(2,4-dichloro-5-methoxyphenyl)amino]-2-[5-(1,3-dioxolan-2-yl)-2-furyl]thieno[3,2-b]pyridine-6-carbonitrile] | 187 to 189 °C | 6.1 µM | 6 µM | 2800 nM and 3000 nM | –
10 | COc1cc(Nc2c(C#N)cnc3cc(-c4ccc(CN5CCN(C)CC5)o4)sc23)c(Cl)cc1Cl [Example 69, 7-[(2,4-dichloro-5-methoxyphenyl)amino]-2-{5-[(4-methylpiperazin-1-yl)methyl]-2-furyl}thieno[3,2-b]pyridine-6-carbonitrile] | 215 to 217 °C | 2.8 µM | 3.4 µM | 1900 nM and 2200 nM | –
11 | COc1cc(Nc2c(C#N)cnc3cc(-c4cccc(CN5CCN(C)CC5)c4)sc23)c(Cl)cc1Cl [Example 74, 7-[(2,4-dichloro-5-methoxyphenyl)amino]-2-{3-[(4-methylpiperazin-1-yl)methyl]phenyl}thieno[3,2-b]pyridine-6-carbonitrile] | 178 to 180 °C | – | – | 600 nM and 510 nM | –
12 | COc1cc(Nc2c(C#N)cnc3cc(-c4ccc(CN(C)C)o4)sc23)c(Cl)cc1Cl [Example 76, 7-[(2,4-dichloro-5-methoxyphenyl)amino]-2-{5-[(dimethylamino)methyl]-2-furyl}thieno[3,2-b]pyridine-6-carbonitrile] | 200 to 202 °C | 4.9 µM | 2.6 µM | 910 nM and 990 nM | –
13 | COc1cc(Nc2c(C#N)cnc3cc(-c4ccc(C5OCCO5)s4)sc23)c(Cl)cc1Cl [Example 77, 7-[(2,4-dichloro-5-methoxyphenyl)amino]-2-[5-(1,3-dioxolan-2-yl)thien-2-yl]thieno[3,2-b]pyridine-6-carbonitrile] | 213 to 217 °C | 2.4 µM | 1.5 µM | 1900 nM and 1700 nM | –
14 | COc1cc(Nc2c(C#N)cnc3cc(-c4ccc(CN5CCN(C)CC5)s4)sc23)c(Cl)cc1Cl [Example 81, 7-[(2,4-dichloro-5-methoxyphenyl)amino]-2-{5-[(4-methylpiperazin-1-yl)methyl]thien-2-yl}thieno[3,2-b]pyridine-6-carbonitrile] | 200 to 202 °C | – | – | 180 nM and 220 nM | –
15 | COc1cc(Nc2c(C#N)cnc3cc(C#Cc4cccc(CN(C)C)n4)sc23)c(Cl)cc1Cl [Example 87, 7-[(2,4-dichloro-5-methoxyphenyl)amino]-2-({6-[(dimethylamino)methyl]pyridin-2-yl}ethynyl)thieno[3,2-b]pyridine-6-carbonitrile] | 190 to 191 °C | – | – | 1000 nM and 1850 nM | –
16 | COc1cc(Nc2c(C#N)cnc3cc(-c4ccc(CN(C)C)s4)sc23)c(Cl)cc1Cl [Example 88, 7-[(2,4-dichloro-5-methoxyphenyl)amino]-2-{5-[(dimethylamino)methyl]thien-2-yl}thieno[3,2-b]pyridine-6-carbonitrile] | 210 to 212 °C | 2.4 µM | 2.3 µM | 160 nM and 250 nM | –
17 | COc1cc(Nc2c(C#N)cnc3cc(-c4ccc(CNCc5ccncc5)cc4)sc23)c(Cl)cc1Cl [Example 89, 7-[(2,4-dichloro-5-methoxyphenyl)amino]-2-(4-{[(pyridin-4-ylmethyl)amino]methyl}phenyl)thieno[3,2-b]pyridine-6-carbonitrile] | 128 to 130 °C | 1.5 µM | 1.21 µM | 1000 nM and 1060 nM | –
18 | COc1cc(Nc2c(C#N)cnc3cc(-c4ccc(CN5CCN(c6ccccc6)CC5)cc4)sc23)c(Cl)cc1Cl [Example 113, 7-[(2,4-dichloro-5-methoxyphenyl)amino]-2-{4-[(4-phenylpiperazin-1-yl)methyl]phenyl}thieno[3,2-b]pyridine-6-carbonitrile] | 238 to 240 °C | – | – | > 10000 nM | –
19 | CN1CCN(Cc2ccc(-c3cc4ncc(C#N)c(Nc5ccc(Cl)cc5Cl)c4s3)cc2)CC1 [Example 119, 7-[(2,4-dichlorophenyl)amino]-2-{4-[(4-methylpiperazin-1-yl)methyl]phenyl}thieno[3,2-b]pyridine-6-carbonitrile] | 245 to 247 °C | – | – | 1220 nM and 1340 nM | –
20 | COc1cc(Nc2c(C#N)cnc3cc(-c4ccc(CN5CCN(c6ccccc6OC)CC5)cc4)sc23)c(Cl)cc1Cl [Example 120, 7-[(2,4-dichloro-5-methoxyphenyl)amino]-2-(4-{[4-(2-methoxyphenyl)piperazin-1-yl]methyl}phenyl)thieno[3,2-b]pyridine-6-carbonitrile] | 176 to 179 °C | – | – | 8900 nM and > 10000 nM | –
21 | COc1cc(Nc2c(C#N)cnc3cc(-c4ccc(CNCCC(C)C)cc4)sc23)c(Cl)cc1Cl [Example 121, 7-[(2,4-dichloro-5-methoxyphenyl)amino]-2-(4-{[(3-methylbutyl)amino]methyl}phenyl)thieno[3,2-b]pyridine-6-carbonitrile] | 195 to 197 °C | – | – | 525 nM and 576 nM and 951 nM | –
22 | COc1cc(Nc2c(C#N)cnc3cc(-c4ccc(C(=O)N(C)C)cc4)sc23)c(Cl)cc1Cl [Example 136, 4-{6-cyano-7-[(2,4-dichloro-5-methoxyphenyl)amino]thieno[3,2-b]pyridin-2-yl}-N,N-dimethylbenzamide] | 246 to 249 °C | – | – | 463 nM and 331 nM and 341 nM | –
